According to ChEMBL document CHEMBL6109069 (J Med Chem, 2025):
The source made the active and inactive calls. The calls are words filed in the database; no cut-off is given here. Non-standard residues stand in square brackets, D forms with d. Residues, ends and D or L forms follow the SMILES beside them. *: point of attachment. Hexenoyl(2E,4S-Me) = CC[C@H](C)/C=C/C(=O)*; Leu(3R-OH) = CC(C)[C@@H](O)[C@H](N)C(=O)O; NH((S)CH(Me)CH2NMe2) = C[C@@H](CN(C)C)N*; NH(2-morpholinoethyl) = C(CN1CCOCC1)N*; Pro(4S-Me) = C[C@@H]1CN[C@H](C(=O)O)C1; NH(1-CH2NMe2-cBu) = CN(C)CC1(N*)CCC1; Gly(octyl) = CCCCCCCC[C@H](N)C(=O)O; Oxazole4CO(2-Me) = Cc1nc(C(=O)*)co1; Benzoyl(4-F) = O=C(c1ccc(F)cc1)*; hCha = N[C@@H](CCC1CCCCC1)C(=O)O; Tle = CC(C)(C)[C@H](N)C(=O)O; NHCH2CH2NMe2 = CN(C)CCN*; Nle = CCCC[C@H](N)C(=O)O; Hexanoyl = CCCCCC(=O)*; Aib = CC(C)(N)C(=O)O; X2 = CN(CCN*)CC(F)F; βAla = NCCC(=O)O; tBu = CC(C)(C)*

Assays:
[1] = Inhibition of Bovine heart ATP synthase assessed as inhibition constant by Michaelis-Menten plot analysis; design: species or system Bos taurus
[2] = tested on: Trypanosoma brucei rhodesiense; experiment: Antitrypanosomal activity against Trypanosoma brucei rhodesiense STIB 900; type: functional, organism-based
[3] = tested on: Lipid bilayer; experiment: Disruption of membrane integrity in bacterial cell membrane mimic POPC/POPG LUVs assessed as calcein leakage at 500 nM measured for 1 mins by fluorescence spectroscopy analysis
[4] = Cytotoxicity against rat L6 cells assessed as cell viability incubated for 72 hrs by CCK-8 assay
[5] = tested on: Trypanosoma brucei rhodesiense; experiment: Antitrypanosomal activity against Trypanosoma brucei rhodesiense STIB 900 incubated for 72 hrs by resazurin staining based analysis; type: functional, organism-based; conditions: STIB 900, 72 h
[6] = tested on: Trypanosoma cruzi; experiment: Antitrypanosomal activity against Trypanosoma cruzi Tulahuen C4 incubated for 4 days; type: functional, organism-based; conditions: Tulahuen C4, 96 h
[7] = tested on: Leishmania donovani; experiment: Antitrypanosomal activity against Leishmania donovani MHOM/ET/67/L82 incubated for 72 hrs by resazurin staining based analysis; type: functional, organism-based; conditions: MHOM/ET/67/L82, 72 h
[8] = tested on: Plasmodium falciparum; experiment: Antiplasmodial activity against Plasmodium falciparum NF54 incubated for 48 hrs; type: functional, organism-based; conditions: NF54, 48 h
[9] = tested on: Fibroblast; experiment: Reduction in respiration rate in human Fibroblast cells assessed as decrease in coupling efficiency at 50 nM incubated up to 60 mins; type: functional, cell-based
[10] = tested on: Fibroblast; experiment: Reduction in respiration rate in human Fibroblast cells assessed as decrease in coupling efficiency at > 200 nM incubated up to 60 mins; type: functional, cell-based
[11] = species: Bos taurus; experiment: Potency index, ratio of Leucinostatin A Ki to test compound Ki for inhibition of Bovine heart ATP synthase
[12] = Cytotoxicity against rat L6 cells assessed as cell viability; type: toxicity, cell-based

Structure (SMILES)	Ki [1]	Ki ([1]; read-out: Ki)	IC50 [2]	Activity [3]	IC50 at 72 h [4]	IC50 [5]	IC50 [6]	IC50 [7]	IC50 [8]	Activity [9]	Activity [10]	Ratio Ki [11]	IC50 [12]
N#CC(C#N)=NNc1ccc(OC(F)(F)F)cc1	Not_determined												
CCCCCC(=O)N1CCC[C@H]1C(=O)N[C@@H](CCC1CCCCC1)C(=O)N[C@@H](CC(C)C)C(=O)NC(C)(C)C(=O)N[C@@H](CC(C)C)C(=O)N[C@@H](CC(C)C)C(=O)NC(C)(C)C(=O)NC(C)(C)C(=O)NCCC(=O)N[C@@H](C)CN(C)C (Hexanoyl-P[hCha]L[Aib]LL[Aib][Aib][βAla]-{NH((S)CH(Me)CH2NMe2)})		139 nM											
CC(C)C[C@H](NC(=O)[C@H](CCC1CCCCC1)NC(=O)[C@@H]1CCCN1C(=O)c1ccc(F)cc1)C(=O)NC(C)(C)C(=O)N[C@@H](CC(C)C)C(=O)N[C@@H](CC(C)C)C(=O)NC(C)(C)C(=O)NC(C)(C)C(=O)NCCC(=O)NCCN(C)C ({Benzoyl(4-F)}-P[hCha]L[Aib]LL[Aib][Aib][βAla]-NHCH2CH2NMe2)		455 nM	3.9 nM	Active									
CC(C)C[C@H](NC(=O)[C@H](CCC1CCCCC1)NC(=O)[C@@H]1CCCN1C(=O)c1ccc(F)cc1)C(=O)NC(C)(C)C(=O)N[C@@H](CC(C)C)C(=O)N[C@@H](CC(C)C)C(=O)NC(C)(C)C(=O)NC(C)(C)C(=O)NCCC(=O)NCCN(C)CC(F)F ({Benzoyl(4-F)}-P[hCha]L[Aib]LL[Aib][Aib][βAla]-X2)		499 nM	393 nM	Active									
CC(C)C[C@H](NC(=O)[C@H](CCC1CCCCC1)NC(=O)[C@@H]1CCCN1C(=O)c1ccc(F)cc1)C(=O)NC(C)(C)C(=O)N[C@@H](CC(C)C)C(=O)N[C@@H](CC(C)C)C(=O)NC(C)(C)C(=O)NC(C)(C)C(=O)NCCC(=O)NCCN1CCOCC1 ({Benzoyl(4-F)}-P[hCha]L[Aib]LL[Aib][Aib][βAla]-{NH(2-morpholinoethyl)})		703 nM	72 nM										
CC(C)C[C@H](NC(=O)[C@H](CC(C)C)NC(=O)C(C)(C)NC(=O)[C@@H](NC(=O)[C@H](CCC1CCCCC1)NC(=O)[C@@H]1CCCN1C(=O)c1ccc(F)cc1)[C@H](O)C(C)C)C(=O)NC(C)(C)C(=O)NC(C)(C)C(=O)NCCC(=O)N[C@@H](C)CN(C)C ({Benzoyl(4-F)}-P[hCha][Leu(3R-OH)][Aib]LL[Aib][Aib][βAla]-{NH((S)CH(Me)CH2NMe2)})		134 nM			1230 nM	1.3 nM	1130 nM	6.7 nM	3 nM				
CC(C)C[C@H](NC(=O)[C@H](CCC1CCCCC1)NC(=O)[C@@H]1C[C@H](C)CN1C(=O)c1ccc(F)cc1)C(=O)NC(C)(C)C(=O)N[C@@H](CC(C)C)C(=O)N[C@@H](CC(C)C)C(=O)NC(C)(C)C(=O)NC(C)(C)C(=O)NCCC(=O)N[C@@H](C)CN(C)C ({Benzoyl(4-F)}-[Pro(4S-Me)][hCha]L[Aib]LL[Aib][Aib][βAla]-{NH((S)CH(Me)CH2NMe2)})		84 nM			266 nM	0.3 nM	3.9 nM	0.34 nM	1.3 nM	Active	Active		
CC(C)C[C@H](NC(=O)[C@H](CC(C)C)NC(=O)C(C)(C)NC(=O)[C@@H](NC(=O)[C@H](CCC1CCCCC1)NC(=O)[C@@H]1C[C@H](C)CN1C(=O)c1ccc(F)cc1)[C@H](O)C(C)C)C(=O)NC(C)(C)C(=O)NC(C)(C)C(=O)NCCC(=O)N[C@@H](C)CN(C)C ({Benzoyl(4-F)}-[Pro(4S-Me)][hCha][Leu(3R-OH)][Aib]LL[Aib][Aib][βAla]-{NH((S)CH(Me)CH2NMe2)})		55 nM			1340 nM	0.63 nM	423 nM	10 nM	3.4 nM	Active	Active		
CC[C@H](C)/C=C/C(=O)N1CCC[C@H]1C(=O)N[C@@H](CCC1CCCCC1)C(=O)N[C@H](C(=O)NC(C)(C)C(=O)N[C@@H](CC(C)C)C(=O)N[C@@H](CC(C)C)C(=O)NC(C)(C)C(=O)NC(C)(C)C(=O)NCCC(=O)N[C@@H](C)CN(C)C)[C@H](O)C(C)C ({Hexenoyl(2E,4S-Me)}-P[hCha][Leu(3R-OH)][Aib]LL[Aib][Aib][βAla]-{NH((S)CH(Me)CH2NMe2)})		29 nM			208 nM	0.56 nM	180 nM	0.53 nM	0.52 nM				
CCCCCCCC[C@H](NC(=O)[C@@H]1C[C@H](C)CN1C(=O)/C=C/[C@@H](C)CC)C(=O)N[C@H](C(=O)NC(C)(C)C(=O)N[C@@H](CC(C)C)C(=O)N[C@@H](CC(C)C)C(=O)NC(C)(C)C(=O)NC(C)(C)C(=O)NCCC(=O)N[C@@H](C)CN(C)C)[C@H](O)C(C)C ({Hexenoyl(2E,4S-Me)}-[Pro(4S-Me)][Gly(octyl)][Leu(3R-OH)][Aib]LL[Aib][Aib][βAla]-{NH((S)CH(Me)CH2NMe2)})		53 nM			77 nM	0.34 nM	24 nM	0.69 nM	0.34 nM				
CC[C@H](C)/C=C/C(=O)N1C[C@@H](C)C[C@H]1C(=O)N[C@@H](CCC1CCCCC1)C(=O)N[C@@H](CC(C)C)C(=O)NC(C)(C)C(=O)N[C@@H](CC(C)C)C(=O)N[C@@H](CC(C)C)C(=O)NC(C)(C)C(=O)NC(C)(C)C(=O)NCCC(=O)N[C@@H](C)CN(C)C ({Hexenoyl(2E,4S-Me)}-[Pro(4S-Me)][hCha]L[Aib]LL[Aib][Aib][βAla]-{NH((S)CH(Me)CH2NMe2)})		107 nM			157 nM	0.26 nM	43 nM	1.3 nM	0.69 nM		Active		
CC[C@H](C)/C=C/C(=O)N1C[C@@H](C)C[C@H]1C(=O)N[C@@H](CCC1CCCCC1)C(=O)N[C@H](C(=O)NC(C)(C)C(=O)N[C@@H](CC(C)C)C(=O)N[C@@H](CC(C)C)C(=O)NC(C)(C)C(=O)NC(C)(C)C(=O)NCCC(=O)N[C@@H](C)CN(C)C)[C@H](O)C(C)C ({Hexenoyl(2E,4S-Me)}-[Pro(4S-Me)][hCha][Leu(3R-OH)][Aib]LL[Aib][Aib][βAla]-{NH((S)CH(Me)CH2NMe2)})		22 nM			232 nM	0.34 nM	275 nM	1.2 nM	0.47 nM		Active	4	
Cc1nc(C(=O)N2CCC[C@H]2C(=O)N[C@@H](COC(C)(C)C)C(=O)N[C@@H](CC(C)C)C(=O)NC(C)(C)C(=O)N[C@@H](CC(C)C)C(=O)N[C@@H](CC(C)C)C(=O)NC(C)(C)C(=O)NC(C)(C)C(=O)NCCC(=O)NC2(CN(C)C)CCC2)co1 ({Oxazole4CO(2-Me)}-PS(tBu)L[Aib]LL[Aib][Aib][βAla]-{NH(1-CH2NMe2-cBu)})		18100 nM	3.9 nM				6410 nM	166 nM	272 nM				> 8750 nM
Cc1nc(C(=O)N2CCC[C@H]2C(=O)N[C@@H](Cc2c[nH]c3ccccc23)C(=O)N[C@@H](CC(C)C)C(=O)NC(C)(C)C(=O)N[C@@H](CC(C)C)C(=O)N[C@@H](CC(C)C)C(=O)NC(C)(C)C(=O)NC(C)(C)C(=O)NCCC(=O)NC2(CN(C)C)CCC2)co1 ({Oxazole4CO(2-Me)}-PWL[Aib]LL[Aib][Aib][βAla]-{NH(1-CH2NMe2-cBu)})			1.3 nM				2700 nM	31 nM	18 nM				
CCCC[C@H](NC(=O)[C@@H]1CCCN1C(=O)c1coc(C)n1)C(=O)N[C@@H](CC(C)C)C(=O)NC(C)(C)C(=O)N[C@@H](CC(C)C)C(=O)N[C@@H](CC(C)C)C(=O)NC(C)(C)C(=O)NC(C)(C)C(=O)NCCC(=O)NC1(CN(C)C)CCC1 ({Oxazole4CO(2-Me)}-P[Nle]L[Aib]LL[Aib][Aib][βAla]-{NH(1-CH2NMe2-cBu)})			6.5 nM				5910 nM	1530 nM	118 nM				> 8750 nM
Cc1nc(C(=O)N2CCC[C@H]2C(=O)N[C@H](C(=O)N[C@@H](CC(C)C)C(=O)NC(C)(C)C(=O)N[C@@H](CC(C)C)C(=O)N[C@@H](CC(C)C)C(=O)NC(C)(C)C(=O)NC(C)(C)C(=O)NCCC(=O)NC2(CN(C)C)CCC2)C(C)(C)C)co1 ({Oxazole4CO(2-Me)}-P[Tle]L[Aib]LL[Aib][Aib][βAla]-{NH(1-CH2NMe2-cBu)})		16200 nM	4.1 nM				6520 nM	1190 nM	212 nM				> 8980 nM
Cc1nc(C(=O)N2CCC[C@H]2C(=O)N[C@@H](CCC2CCCCC2)C(=O)N[C@@H](CC(C)C)C(=O)NC(C)(C)C(=O)N[C@@H](CC(C)C)C(=O)N[C@@H](CC(C)C)C(=O)NC(C)(C)C(=O)NC(C)(C)C(=O)NCCC(=O)NC2(CN(C)C)CCC2)co1 ({Oxazole4CO(2-Me)}-P[hCha]L[Aib]LL[Aib][Aib][βAla]-{NH(1-CH2NMe2-cBu)})			0.76 nM				193 nM	11 nM	4.8 nM				
